From ChEMBL document CHEMBL1145696, “Cytotoxic glycosides from Albizia julibrissin” (J Nat Prod, 1997)

These molecules were tested on KB (assay: Cytotoxicity against human KB cells by MTT assay).
Format: functional, cell-based

Structure (SMILES) | IC50
C=C[C@](C)(CC/C=C(\C)C(=O)O[C@H]1[C@H](O)[C@@H](O)[C@H](O[C@](C)(C=C)CC/C=C(\C)C(=O)O[C@H]2C[C@]3(C(=O)O[C@@H]4O[C@H](CO)[C@@H](O)[C@H](O)[C@H]4O[C@@H]4O[C@@H](C)[C@H](O[C@@H]5O[C@@H](CO)[C@H](O)[C@H]5O)[C@@H](O[C@@H]5O[C@H](CO)[C@@H](O)[C@H](O)[C@H]5O)[C@H]4O)[C@H](O)C[C@]4(C)C(=CC[C@@H]5[C@@]6(C)CC[C@H](O[C@@H]7O[C@H](CO[C@@H]8O[C@H](C)[C@H](O)[C@H](O)[C@H]8O[C@@H]8OC[C@@H](O)[C@H](O)[C@H]8O)[C@@H](O)[C@H](O)[C@H]7NC(C)=O)C(C)(C)[C@@H]6CC[C@]54C)[C@@H]3CC2(C)C)O[C@@H]1C)O[C@@H]1O[C@H](C)[C@@H](O)[C@H](O)[C@H]1O [JULIBROSIDE III] | 0.9 µM
C[C@H]1O[C@@H](OC[C@H]2O[C@@H](O[C@H]3CC[C@]4(C)[C@H]5CC=C6[C@@H]7CC(C)(C)[C@@H](O)C[C@]7(C(=O)O)[C@H](O)C[C@@]6(C)[C@]5(C)CC[C@H]4C3(C)C)[C@H](O)[C@@H](O)[C@@H]2O)[C@H](O[C@@H]2OC[C@@H](O)[C@H](O)[C@H]2O)[C@@H](O)[C@H]1O [PROSAPOGENIN 1] | > 10 µg/mL
CC(=O)N[C@H]1[C@H](O[C@H]2CC[C@]3(C)[C@H]4CC=C5[C@@H]6CC(C)(C)[C@@H]7C[C@]6(C(=O)O7)[C@H](O)C[C@@]5(C)[C@]4(C)CC[C@H]3C2(C)C)O[C@H](CO[C@@H]2O[C@H](C)[C@H](O)[C@H](O)[C@H]2O[C@@H]2OC[C@@H](O)[C@H](O)[C@H]2O)[C@@H](O)[C@@H]1O [PORSAPOGENIN 7] | > 10 µg/mL
C=C[C@](C)(CC/C=C(\C)C(=O)O[C@H]1[C@H](O)[C@@H](O)[C@H](O[C@](C)(C=C)CC/C=C(\C)C(=O)O[C@H]2C[C@]3(C(=O)O[C@@H]4O[C@H](CO)[C@@H](O)[C@H](O)[C@H]4O[C@@H]4O[C@@H](C)[C@H](O[C@@H]5O[C@@H](CO)[C@H](O)[C@H]5O)[C@@H](O[C@@H]5O[C@H](CO)[C@@H](O)[C@H](O)[C@H]5O)[C@H]4O)[C@H](O)C[C@]4(C)C(=CC[C@@H]5[C@@]6(C)CC[C@H](O[C@@H]7O[C@H](CO[C@@H]8O[C@H](C)[C@H](O)[C@H](O)[C@H]8O[C@@H]8OC[C@@H](O)[C@H](O)[C@H]8O)[C@@H](O)[C@H](O)[C@H]7O)C(C)(C)[C@@H]6CC[C@]54C)[C@@H]3CC2(C)C)O[C@@H]1C)O[C@@H]1O[C@H](C)[C@@H](O)[C@H](O)[C@H]1O [JULIBROSIDE II] | > 10 µg/mL
C=C[C@](C)(CC/C=C(\CO)C(=O)O[C@H]1C[C@]2(C(=O)O[C@@H]3O[C@H](CO)[C@@H](O)[C@H](O)[C@H]3O[C@@H]3O[C@@H](C)[C@H](O[C@@H]4O[C@@H](CO)[C@H](O)[C@H]4O)[C@@H](O[C@@H]4O[C@H](CO)[C@@H](O)[C@H](O)[C@H]4O)[C@H]3O)[C@H](O)C[C@]3(C)C(=CC[C@@H]4[C@@]5(C)CC[C@H](O[C@@H]6O[C@H](CO[C@@H]7O[C@H](C)[C@H](O)[C@H](O)[C@H]7O[C@@H]7OC[C@@H](O)[C@H](O)[C@H]7O)[C@@H](O)[C@H](O)[C@H]6O)C(C)(C)[C@@H]5CC[C@]43C)[C@@H]2CC1(C)C)O[C@@H]1O[C@H](C)[C@@H](O)[C@H](O)[C@H]1O [PROSAPOGENIN 10] | 2 µM
C=C[C@](C)(CC/C=C(\C)C(=O)O[C@H]1C[C@]2(C(=O)O[C@@H]3O[C@H](CO)[C@@H](O)[C@H](O)[C@H]3O[C@@H]3O[C@@H](C)[C@H](O[C@@H]4O[C@@H](CO)[C@H](O)[C@H]4O)[C@@H](O[C@@H]4O[C@H](CO)[C@@H](O)[C@H](O)[C@H]4O)[C@H]3O)[C@H](O)C[C@]3(C)C(=CC[C@@H]4[C@@]5(C)CC[C@H](O[C@@H]6O[C@H](CO[C@@H]7O[C@H](C)[C@H](O)[C@H](O)[C@H]7O[C@@H]7OC[C@@H](O)[C@H](O)[C@H]7O)[C@@H](O)[C@H](O)[C@H]6O)C(C)(C)[C@@H]5CC[C@]43C)[C@@H]2CC1(C)C)O[C@@H]1O[C@H](C)[C@@H](O)[C@H](O)[C@H]1O [PORSAPOGENIN 9] | 1.6 µM
C[C@H]1O[C@@H](OC[C@H]2O[C@@H](O[C@H]3CC[C@]4(C)[C@H]5CC=C6[C@@H]7CC(C)(C)[C@@H]8C[C@]7(C(=O)O8)[C@H](O)C[C@@]6(C)[C@]5(C)CC[C@H]4C3(C)C)[C@H](O)[C@@H](O)[C@@H]2O)[C@H](O[C@@H]2OC[C@@H](O)[C@H](O)[C@H]2O)[C@@H](O)[C@H]1O [PORSAPOGENIN 6] | > 10 µg/mL
C=C[C@](C)(CC/C=C(\C)C(=O)O[C@H]1C[C@]2(C(=O)O[C@@H]3O[C@H](CO)[C@@H](O)[C@H](O)[C@H]3O[C@@H]3O[C@@H](C)[C@H](O[C@@H]4O[C@@H](CO)[C@H](O)[C@H]4O)[C@@H](O[C@@H]4O[C@H](CO)[C@@H](O)[C@H](O)[C@H]4O)[C@H]3O)CC[C@]3(C)C(=CC[C@@H]4[C@@]5(C)CC[C@H](O[C@@H]6O[C@H](CO[C@@H]7O[C@H](C)[C@H](O)[C@H](O)[C@H]7O[C@@H]7OC[C@@H](O)[C@H](O)[C@H]7O)[C@@H](O)[C@H](O)[C@H]6OC6O[C@H](CO)[C@@H](O)[C@H](O)[C@H]6O)C(C)(C)[C@@H]5CC[C@]43C)[C@@H]2CC1(C)C)O[C@@H]1O[C@H](C)[C@@H](O)[C@H](O)[C@H]1O (stereo not given in full) [PROSAPOGENIN 12] | > 10 µg/mL
C[C@H]1O[C@@H](OC[C@H]2O[C@@H](O[C@H]3CC[C@]4(C)[C@H]5CC=C6[C@@H]7CC(C)(C)[C@@H]8C[C@]7(C(=O)O8)[C@H](O)C[C@@]6(C)[C@]5(C)CC[C@H]4C3(C)C)[C@H](O[C@@H]3O[C@H](CO)[C@@H](O)[C@H](O)[C@H]3O)[C@@H](O)[C@@H]2O)[C@H](O[C@@H]2OC[C@@H](O)[C@H](O)[C@H]2O)[C@@H](O)[C@H]1O [PORSAPOGENIN 5] | > 10 µg/mL
CC(=O)N[C@H]1[C@H](O[C@H]2CC[C@]3(C)[C@H]4CC=C5[C@@H]6CC(C)(C)[C@@H](O)C[C@]6(C(=O)O)[C@H](O)C[C@@]5(C)[C@]4(C)CC[C@H]3C2(C)C)O[C@H](CO[C@@H]2OC[C@H](O)[C@H](O)[C@H]2O[C@@H]2OC[C@@H](O)[C@H](O)[C@H]2O)[C@@H](O)[C@@H]1O [PROSAPOGENIN 2] | > 10 µg/mL
C=C[C@](C)(CC/C=C(\C)C(=O)O[C@H]1[C@H](O)[C@@H](O)[C@H](O[C@](C)(C=C)CC/C=C(\C)C(=O)O[C@H]2C[C@]3(C(=O)O[C@@H]4O[C@H](CO)[C@@H](O)[C@H](O)[C@H]4O[C@@H]4O[C@@H](C)[C@H](O[C@@H]5O[C@@H](CO)[C@H](O)[C@H]5O)[C@@H](O[C@@H]5O[C@H](CO)[C@@H](O)[C@H](O)[C@H]5O)[C@H]4O)[C@H](O)C[C@]4(C)C(=CC[C@@H]5[C@@]6(C)CC[C@H](O[C@@H]7O[C@H](CO[C@@H]8O[C@H](C)[C@H](O)[C@H](O)[C@H]8O[C@@H]8OC[C@@H](O)[C@H](O)[C@H]8O)[C@@H](O)[C@H](O)[C@H]7O[C@@H]7O[C@H](CO)[C@@H](O)[C@H](O)[C@H]7O)C(C)(C)[C@@H]6CC[C@]54C)[C@@H]3CC2(C)C)O[C@@H]1C)O[C@@H]1O[C@H](C)[C@@H](O)[C@H](O)[C@H]1O [JULIBROSIDE I] | > 10 µg/mL
CC(=O)N[C@H]1[C@H](O[C@H]2CC[C@]3(C)[C@H]4CC=C5[C@@H]6CC(C)(C)[C@@H]7C[C@]6(C(=O)O7)[C@H](O)C[C@@]5(C)[C@]4(C)CC[C@H]3C2(C)C)O[C@H](CO[C@@H]2OC[C@H](O)[C@H](O)[C@H]2O[C@@H]2OC[C@@H](O)[C@H](O)[C@H]2O)[C@@H](O)[C@@H]1O [PROSAPOGENIN 4] | > 10 µg/mL
C=C[C@](C)(CC/C=C(\C)C(=O)O[C@H]1C[C@]2(C(=O)O[C@@H]3O[C@H](CO)[C@@H](O)[C@H](O)[C@H]3O[C@@H]3O[C@@H](C)[C@H](O[C@@H]4O[C@@H](CO)[C@H](O)[C@H]4O)[C@@H](O[C@@H]4O[C@H](CO)[C@@H](O)[C@H](O)[C@H]4O)[C@H]3O)CC[C@]3(C)C(=CC[C@@H]4[C@@]5(C)CC[C@H](O[C@@H]6O[C@H](CO[C@@H]7O[C@H](C)[C@H](O)[C@H](O)[C@H]7O[C@@H]7OC[C@@H](O)[C@H](O)[C@H]7O)[C@@H](O)[C@H](O)[C@H]6O)C(C)(C)[C@@H]5CC[C@]43C)[C@@H]2CC1(C)C)O[C@@H]1O[C@H](C)[C@@H](O)[C@H](O)[C@H]1O [PROSAPOGENIN 11] | 1.6 µM
C=C[C@](C)(CC/C=C(\C)C(=O)O[C@H]1C[C@]2(C(=O)O[C@@H]3O[C@H](CO)[C@@H](O)[C@H](O)[C@H]3O[C@@H]3O[C@@H](C)[C@H](O[C@@H]4O[C@@H](CO)[C@H](O)[C@H]4O)[C@@H](O[C@@H]4O[C@H](CO)[C@@H](O)[C@H](O)[C@H]4O)[C@H]3O)[C@H](O)C[C@]3(C)C(=CC[C@@H]4[C@@]5(C)CC[C@H](O[C@@H]6O[C@H](CO[C@@H]7O[C@H](C)[C@H](O)[C@H](O)[C@H]7O[C@@H]7OC[C@@H](O)[C@H](O)[C@H]7O)[C@@H](O)[C@H](O)[C@H]6O[C@@H]6O[C@H](CO)[C@@H](O)[C@H](O)[C@H]6O)C(C)(C)[C@@H]5CC[C@]43C)[C@@H]2CC1(C)C)O[C@@H]1O[C@H](C)[C@@H](O)[C@H](O)[C@H]1O [PORSAPOGENIN 8] | 4.5 µM
CC1(C)C[C@H]2C3=CC[C@@H]4[C@@]5(C)CC[C@H](O[C@@H]6O[C@H](CO[C@@H]7OC[C@H](O)[C@H](O)[C@H]7O[C@@H]7OC[C@@H](O)[C@H](O)[C@H]7O)[C@@H](O)[C@H](O)[C@H]6O)C(C)(C)[C@@H]5CC[C@@]4(C)[C@]3(C)C[C@@H](O)[C@@]23C[C@@H]1OC3=O [PROSAPOGENIN 3] | > 10 µg/mL
